Laboratory results reported in US20240216342A1, “BLOOD CARNITINE-INCREASING AGENT” (KOWA COMPANY, LTD., priority 2021, published 2024).

Tests used:
Assay type in all cases: in vivo, human
[1] = Blood free carnitine after meal (high-fat food) versus before meal, compound A given to dyslipidemia patients for 4 weeks (Example 1)
Procedure: A study was conducted on an action on blood carnitine in oral administration of the compound A to a dyslipidemia patient at 0.2 to 0.8 mg a day for 4 weeks. For the administration of the compound A, an IR preparation (0.2 mg/day, twice a day), 0.4 mg of a CR preparation (once a day) and 0.8 mg of a CR preparation (once a day) were used, and the administration was performed before or after a meal. Table 2 and FIG. 2 show a process of an amount of change in free carnitine in blood after meal (after intake of high-fat food) with respect to a value before meal in administration of the compound A to the dyslipidemia patient for 4 weeks in Example 1.

[2] = Blood free carnitine in a fasting state, compound A given orally to NAFLD patients for 48 weeks versus placebo (Example 2); settings: IR 0.4 mg/day
Procedure: A study was conducted on an action on blood carnitine in oral administration of the compound A to a non-alcoholic fatty liver disease (NAFLD) patient at 0.4 mg a day for 48 weeks. For the administration of the compound A, an IR preparation (0.4 mg/day, twice a day) was used, and the administration was performed in a fasting state. A comparison was made with placebo administration. Table 3 and FIG. 3 show a process of a ratio of change in concentration of free carnitine in blood in a fasting state in administration of the compound A (IR 0.4 mg/day) to the NAFLD patient for 48 weeks with respect to the value before administration (at 0 weeks) in Example 2.

[3] = Blood free carnitine in a fasting state, compound A given orally to dyslipidemia patients for 4 weeks (Example 1); settings: for Ratio of change in free carnitine after administration for 4 weeks with respect to value before administration (at 0 weeks): fasting state, oral
Procedure: A study was conducted on an action on blood carnitine in oral administration of the compound A to a dyslipidemia patient at 0.2 to 0.8 mg a day for 4 weeks. For the administration of the compound A, an IR preparation (0.2 mg/day, twice a day), 0.4 mg of a CR preparation (once a day) and 0.8 mg of a CR preparation (once a day) were used, and the administration was performed before or after a meal. Table 1 and FIG. 1 show a ratio of change in concentration of free carnitine in blood in a fasting state in administration of the compound A to the dyslipidemia patient for 4 weeks with respect to the value before administration (at 0 weeks) in Example 1.

In the case of `CC[C@@H](Oc1cccc(CN(CCCOc2ccc(OC)cc2)c2nc3ccccc3o2)c1)C(=O)O` [Compound A, (R)-2-[3-[[N-(benzoxazol-2-yl)-N-3-(4-methoxyphenoxy)propyl]aminomethyl]phenoxy]butyric acid], the “Effect on concentration of free carnitine in blood after meal compared to before meal (in words)” value ([1]; 0.2 to 0.8 mg a day, 4 weeks) is reported as “increased the concentration of free carnitine in blood after meal as compared to the concentration before meal”, the “Amount of change in free carnitine in blood after meal with respect to value before meal, average” value (shortened to “Amount of change in free carnitine”) ([1]; CR 0.4 mg/day (QD) for 4 weeks, 1 h after high-fat meal) is reported as 2.78 µmol/L and the “Amount of change in free carnitine” value ([1]; CR 0.4 mg/day (QD) for 4 weeks, 2.5 h after high-fat meal) is reported as 2.65 µmol/L. The “Amount of change in free carnitine” value ([1]; CR 0.4 mg/day (QD) for 4 weeks, 4.5 h after high-fat meal) was 2.25 µmol/L, the “Amount of change in free carnitine” value ([1]; CR 0.8 mg/day (QD) for 4 weeks, 1 h after high-fat meal) was 3.11 µmol/L and the “Amount of change in free carnitine” value ([1]; CR 0.8 mg/day (QD) for 4 weeks, 2.5 h after high-fat meal) was 3.26 µmol/L. The “Amount of change in free carnitine” value ([1]; CR 0.8 mg/day (QD) for 4 weeks, 4.5 h after high-fat meal) was 2.92 µmol/L, the “Amount of change in free carnitine” value ([1]; IR 0.2 mg/day (BID) for 4 weeks, 1 h after high-fat meal) was 2.72 µmol/L and the “Amount of change in free carnitine” value ([1]; IR 0.2 mg/day (BID) for 4 weeks, 2.5 h after high-fat meal) was 2.19 µmol/L. The “Amount of change in free carnitine” value ([1]; IR 0.2 mg/day (BID) for 4 weeks, 4.5 h after high-fat meal) was 1.79 µmol/L, the “Time of administration at which the free carnitine increasing action reached the maximum value” [2] was 12 weeks and the “Ratio of change in concentration of free carnitine in blood in a fasting state with respect to value before administration (0 weeks), average” value ([2]; 4 weeks) was 20.0. The “Ratio of change in concentration of free carnitine in blood in a fasting state with respect to value before administration (0 weeks), average” value ([2]; 12 weeks) was 24.7, the “Ratio of change in concentration of free carnitine in blood in a fasting state with respect to value before administration (0 weeks), average” value ([2]; 24 weeks) was 24.5 and the “Effect on concentration of free carnitine in blood in a fasting state compared to placebo (in words)” value ([2]; 48 weeks) was “increased the concentration of free carnitine in blood in a fasting state as compared to placebo administration”. For the same compound, the “Ratio of change in concentration of free carnitine in blood in a fasting state with respect to value before administration (0 weeks), average” value ([2]; 48 weeks) was 20.9, the “Effect on concentration of free carnitine in blood in a fasting state (in words)” value ([3]; 0.2 to 0.8 mg a day) was “increased the concentration of free carnitine in blood in a dose-dependent manner” and the “Ratio of change in free carnitine after administration for 4 weeks with respect to value before administration (at 0 weeks)” value (from here on “Ratio of change in free carnitine”) ([3]; CR preparation 0.4 mg/day) was 19.5. The “Ratio of change in free carnitine” value ([3]; CR preparation 0.8 mg/day) was 23.71 and the “Ratio of change in free carnitine” value ([3]; IR preparation 0.2 mg/day) was 11.82.
